How the values were obtained:
EGFR wild type (EGFR WT) = EGFR wild type (EGFR WT) (Homo sapiens (Human), UniProt P00533); test: Cellular phosphorylation assay, EGF-stimulated EGFR phosphorylation in engineered NIH 3T3 cells, Phospho-EGFR DuoSet IC ELISA, Assay 5; format: cell-based
Summary of the method: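 NIH 3T3 cells expressing EGFR WT (20,000/well, attached overnight) were exposed to serially diluted compound for 1 h at 37 °C, then stimulated with 100 ng/ml rEGF for 10 min. Phospho-EGFR in lysates measured by sandwich ELISA optical density; IC50 from curves.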

[1] = target: ErbB2 insYVMA (HER2-YVMA, SEQ ID NO: 2) (Homo sapiens, UniProt P04626, INS775YVMA/P1170A); test: biochemical; settings: ErbB2 insYVMA enzyme assay; read-out: Assay 1 IC50
Sequence of ErbB2 insYVMA (HER2-YVMA, SEQ ID NO: 2) (P04626 with tags, fused parts or gaps INS775YVMA/P1170A limits assumed): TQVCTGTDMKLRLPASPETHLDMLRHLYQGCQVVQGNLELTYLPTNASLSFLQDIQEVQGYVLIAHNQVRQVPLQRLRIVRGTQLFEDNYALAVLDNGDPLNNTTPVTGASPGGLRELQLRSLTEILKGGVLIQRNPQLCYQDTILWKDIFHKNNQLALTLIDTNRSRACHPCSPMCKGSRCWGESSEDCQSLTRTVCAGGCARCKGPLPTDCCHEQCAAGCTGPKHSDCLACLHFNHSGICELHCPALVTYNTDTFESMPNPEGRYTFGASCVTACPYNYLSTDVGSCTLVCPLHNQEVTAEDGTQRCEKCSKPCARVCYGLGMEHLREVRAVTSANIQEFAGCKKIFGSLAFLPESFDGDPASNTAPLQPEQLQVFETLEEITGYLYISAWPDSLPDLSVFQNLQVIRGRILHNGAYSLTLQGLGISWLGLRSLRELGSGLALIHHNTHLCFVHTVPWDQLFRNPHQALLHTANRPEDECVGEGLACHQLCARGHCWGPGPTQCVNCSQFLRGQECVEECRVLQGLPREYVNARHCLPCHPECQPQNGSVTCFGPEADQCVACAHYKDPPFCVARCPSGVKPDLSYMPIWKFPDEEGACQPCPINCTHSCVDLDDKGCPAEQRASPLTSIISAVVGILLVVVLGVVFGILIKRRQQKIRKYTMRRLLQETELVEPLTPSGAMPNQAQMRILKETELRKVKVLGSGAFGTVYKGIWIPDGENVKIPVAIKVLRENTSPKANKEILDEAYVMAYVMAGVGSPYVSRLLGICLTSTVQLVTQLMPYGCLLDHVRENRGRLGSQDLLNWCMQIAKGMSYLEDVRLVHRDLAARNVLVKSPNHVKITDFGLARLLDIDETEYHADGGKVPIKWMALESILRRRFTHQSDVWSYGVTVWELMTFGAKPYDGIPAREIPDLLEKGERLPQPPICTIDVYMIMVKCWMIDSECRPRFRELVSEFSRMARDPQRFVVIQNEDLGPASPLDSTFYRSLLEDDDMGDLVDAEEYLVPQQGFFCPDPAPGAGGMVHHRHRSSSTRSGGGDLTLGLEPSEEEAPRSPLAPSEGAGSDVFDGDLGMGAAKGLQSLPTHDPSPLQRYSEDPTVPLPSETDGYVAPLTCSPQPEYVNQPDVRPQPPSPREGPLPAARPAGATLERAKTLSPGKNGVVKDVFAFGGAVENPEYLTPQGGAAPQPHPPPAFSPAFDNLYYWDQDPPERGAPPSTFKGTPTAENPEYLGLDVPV

ErbB2 WT = ErbB2 WT (Homo sapiens (Human), UniProt P04626); test: ErbB enzyme assay (CisBio HTRF KinEASE-TK), Assay 2; format: biochemical
Sequence of ErbB2 WT (P04626 23-1255): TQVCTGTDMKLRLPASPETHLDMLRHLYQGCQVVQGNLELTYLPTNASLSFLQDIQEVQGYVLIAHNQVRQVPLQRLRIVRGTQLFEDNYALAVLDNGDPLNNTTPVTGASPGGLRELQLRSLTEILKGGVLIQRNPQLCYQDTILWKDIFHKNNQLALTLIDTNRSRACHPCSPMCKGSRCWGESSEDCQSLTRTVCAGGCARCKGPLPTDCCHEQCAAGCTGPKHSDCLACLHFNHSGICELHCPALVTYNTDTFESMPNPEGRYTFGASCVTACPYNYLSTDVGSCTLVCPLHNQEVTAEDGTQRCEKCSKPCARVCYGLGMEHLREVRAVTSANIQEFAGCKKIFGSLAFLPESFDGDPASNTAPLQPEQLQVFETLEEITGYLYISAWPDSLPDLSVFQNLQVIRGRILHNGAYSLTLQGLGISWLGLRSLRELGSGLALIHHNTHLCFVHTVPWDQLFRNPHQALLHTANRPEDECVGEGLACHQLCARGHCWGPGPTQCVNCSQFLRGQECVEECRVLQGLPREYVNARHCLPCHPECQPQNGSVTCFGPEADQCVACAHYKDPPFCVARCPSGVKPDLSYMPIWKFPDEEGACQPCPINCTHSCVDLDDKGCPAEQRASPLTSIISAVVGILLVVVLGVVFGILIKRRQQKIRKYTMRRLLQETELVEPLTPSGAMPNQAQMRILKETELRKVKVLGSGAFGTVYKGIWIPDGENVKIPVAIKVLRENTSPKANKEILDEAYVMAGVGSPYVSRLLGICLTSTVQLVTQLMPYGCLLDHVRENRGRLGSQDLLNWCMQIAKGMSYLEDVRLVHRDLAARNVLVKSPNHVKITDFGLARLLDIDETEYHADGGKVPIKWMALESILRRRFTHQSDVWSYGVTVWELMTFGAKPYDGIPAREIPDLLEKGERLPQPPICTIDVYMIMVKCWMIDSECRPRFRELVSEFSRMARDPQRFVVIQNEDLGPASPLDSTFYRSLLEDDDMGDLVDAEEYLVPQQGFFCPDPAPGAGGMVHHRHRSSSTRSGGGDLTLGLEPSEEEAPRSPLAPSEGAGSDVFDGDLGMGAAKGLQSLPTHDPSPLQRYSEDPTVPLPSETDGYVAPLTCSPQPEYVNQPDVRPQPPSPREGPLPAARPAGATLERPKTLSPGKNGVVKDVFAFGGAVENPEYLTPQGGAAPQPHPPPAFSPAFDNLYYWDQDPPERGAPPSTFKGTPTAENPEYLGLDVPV
Summary of the method: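 ErbB2 phosphorylates 250 nM biotin-TK substrate at 1 mM ATP in 25 mM HEPES pH 7.4, 10 mM MgCl2, 0.01% Triton X-100 and 2% DMSO, for 30 min at 22 °C. Product is detected by HTRF with Sa-XL665 and TK-Ab-Cryptate. Percent of control is set by DMSO-only wells and pre-quenched wells.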

[2] = target: ErbB2 with Exon 20 YVMA insertion (HER2-YVMA) (Homo sapiens (Human), UniProt P04626, INS775YVMA); test: Cellular phosphorylation assay, constitutive ErbB2 phosphorylation (Y1196) in engineered NIH 3T3 cells, Assay 4; format: cell-based
Sequence of ErbB2 with Exon 20 YVMA insertion (HER2-YVMA) (P04626 other isoform, or with tags, fused parts or gaps ins YVMA behind 775): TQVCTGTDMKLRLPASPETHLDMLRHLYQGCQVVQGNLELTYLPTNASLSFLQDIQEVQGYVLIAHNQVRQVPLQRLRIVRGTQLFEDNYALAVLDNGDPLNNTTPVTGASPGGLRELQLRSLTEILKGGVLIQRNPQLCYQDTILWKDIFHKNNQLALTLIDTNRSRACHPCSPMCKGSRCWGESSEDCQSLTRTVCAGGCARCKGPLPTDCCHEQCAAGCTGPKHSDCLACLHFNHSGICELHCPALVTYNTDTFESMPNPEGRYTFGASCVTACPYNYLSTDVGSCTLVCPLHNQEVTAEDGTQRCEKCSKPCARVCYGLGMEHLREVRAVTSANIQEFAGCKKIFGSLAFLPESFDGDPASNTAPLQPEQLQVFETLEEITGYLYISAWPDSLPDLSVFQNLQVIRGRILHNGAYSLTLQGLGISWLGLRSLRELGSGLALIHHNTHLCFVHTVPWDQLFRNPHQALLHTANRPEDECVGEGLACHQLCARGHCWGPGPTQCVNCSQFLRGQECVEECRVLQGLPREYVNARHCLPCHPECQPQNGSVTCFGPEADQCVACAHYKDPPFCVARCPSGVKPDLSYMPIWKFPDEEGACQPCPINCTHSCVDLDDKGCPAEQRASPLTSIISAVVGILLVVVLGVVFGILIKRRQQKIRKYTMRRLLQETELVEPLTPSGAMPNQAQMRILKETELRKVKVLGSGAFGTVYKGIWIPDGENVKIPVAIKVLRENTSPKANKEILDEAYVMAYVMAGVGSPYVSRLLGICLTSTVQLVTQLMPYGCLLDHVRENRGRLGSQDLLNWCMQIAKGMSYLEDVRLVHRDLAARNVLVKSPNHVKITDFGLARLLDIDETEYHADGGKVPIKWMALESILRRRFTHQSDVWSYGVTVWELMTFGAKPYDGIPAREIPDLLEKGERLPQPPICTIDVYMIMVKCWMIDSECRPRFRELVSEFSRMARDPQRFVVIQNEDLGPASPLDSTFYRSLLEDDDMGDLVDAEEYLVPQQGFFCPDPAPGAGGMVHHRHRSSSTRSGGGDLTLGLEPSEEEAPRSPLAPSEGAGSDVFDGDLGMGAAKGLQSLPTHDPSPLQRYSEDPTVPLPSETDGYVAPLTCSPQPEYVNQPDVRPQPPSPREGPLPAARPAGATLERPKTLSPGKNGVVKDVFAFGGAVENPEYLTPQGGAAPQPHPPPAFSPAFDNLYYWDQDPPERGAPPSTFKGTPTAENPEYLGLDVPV
Summary of the method: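 Engineered NIH 3T3 cells expressing HER2-YVMA treated with compounds 1 h at 37 °C, then formaldehyde-fixed and methanol-permeabilized. pErbB2 Y1196 detected by in-cell infrared immunofluorescence, normalized to GAPDH. IC50 from the normalized curves.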

EGFR = EGFR (Homo sapiens (Human), UniProt P00533); test: ErbB enzyme assay (CisBio HTRF KinEASE-TK), Assay 3; format: biochemical
Sequence of EGFR (P00533 25-1210): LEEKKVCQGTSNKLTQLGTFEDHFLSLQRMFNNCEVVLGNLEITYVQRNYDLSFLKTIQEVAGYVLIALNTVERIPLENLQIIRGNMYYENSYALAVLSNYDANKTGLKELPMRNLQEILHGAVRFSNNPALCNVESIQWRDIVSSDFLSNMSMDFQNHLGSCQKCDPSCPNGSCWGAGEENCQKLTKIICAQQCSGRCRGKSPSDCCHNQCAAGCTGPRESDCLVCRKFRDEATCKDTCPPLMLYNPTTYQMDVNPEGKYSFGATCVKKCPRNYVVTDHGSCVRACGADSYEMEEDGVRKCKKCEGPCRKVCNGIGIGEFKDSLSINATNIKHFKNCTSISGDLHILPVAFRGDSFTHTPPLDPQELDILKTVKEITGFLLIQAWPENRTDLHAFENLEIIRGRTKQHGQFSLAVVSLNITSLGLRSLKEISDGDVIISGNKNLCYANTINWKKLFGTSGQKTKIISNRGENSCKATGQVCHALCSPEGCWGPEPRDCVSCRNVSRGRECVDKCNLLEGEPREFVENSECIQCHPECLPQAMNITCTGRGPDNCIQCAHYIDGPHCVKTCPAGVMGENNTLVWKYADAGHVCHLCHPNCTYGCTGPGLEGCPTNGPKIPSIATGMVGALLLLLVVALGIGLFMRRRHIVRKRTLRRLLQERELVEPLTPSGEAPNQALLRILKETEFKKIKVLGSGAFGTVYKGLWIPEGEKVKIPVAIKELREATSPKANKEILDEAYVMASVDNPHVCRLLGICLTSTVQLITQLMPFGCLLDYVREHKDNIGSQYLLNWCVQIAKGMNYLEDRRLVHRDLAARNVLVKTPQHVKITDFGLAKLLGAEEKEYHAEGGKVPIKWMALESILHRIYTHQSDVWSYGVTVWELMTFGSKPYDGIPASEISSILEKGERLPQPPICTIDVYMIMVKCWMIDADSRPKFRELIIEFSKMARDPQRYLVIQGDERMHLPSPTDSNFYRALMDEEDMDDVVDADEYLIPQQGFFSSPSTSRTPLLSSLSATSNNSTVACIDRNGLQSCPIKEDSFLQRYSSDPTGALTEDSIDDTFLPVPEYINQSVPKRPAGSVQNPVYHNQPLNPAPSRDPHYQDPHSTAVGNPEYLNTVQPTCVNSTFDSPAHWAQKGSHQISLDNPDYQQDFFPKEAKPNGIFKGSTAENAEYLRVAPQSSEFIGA
Summary of the method: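 Kinase + 250 nM biotin TK-substrate, 1 mM ATP, cpd (3-fold dil.), HEPES pH 7.4/10 mM MgCl2/0.01% Triton/2% DMSO; 30 min 22 °C. Quench w/ Sa-XL665 + TK-Ab-Cryptate, 1 h, HTRF. IC50 = 50 POC on 4PL fit.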

Row | SMILES | IC50 (EGFR wild type (EGFR WT)) [nM] | IC50 [1] [nM] | IC50 (ErbB2 WT) [nM] | IC50 [2] [nM] | IC50 (EGFR) [nM]
1 | Cc1c(Oc2ccn3ncnc3c2)ccc(Nc2ncnc3cnc(N4C[C@@H](O)C(F)(F)C4)nc23)c1F [Example 316] | ≥ 5000 | 52.2 | 111 | 1320 | 5040
2 | Cc1c(Oc2ccn3ncnc3c2)ccc(Nc2ncnc3cnc(N(C)CC(F)F)nc23)c1F [Example 317] | ≥ 5000 | 18.1 | 101 | 402 | ≥ 10000
3 | Cc1c(Oc2ccn3ncnc3c2)ccc(Nc2ncnc3cnc(N[C@H]4CNC[C@H]4F)nc23)c1F [Example 318] | ≥ 5000 | 125 | 88 | 928 | 4330
4 | Cc1c(Oc2ccn3ncnc3c2)ccc(Nc2ncnc3cnc(N(C)[C@H]4CN(C)C[C@H]4F)nc23)c1F [Example 320] | ≥ 5000 | 12.7 | 36 | 271 | 2340
5 | COC[C@H]1CCN1c1ncc2ncnc(Nc3ccc(Oc4ccn5ncnc5c4)c(Cl)c3)c2n1 [Example 321] | ≥ 5000 | 12.9 | 65.7 | 72 | 4340
6 | Clc1cc(Nc2ncnc3cnc(N4C5CCC4COC5)nc23)ccc1Oc1ccn2ncnc2c1 [Example 322] | ≥ 5000 | 21.6 | 62.1 | 102 | ≥ 10000
7 | O[C@@H]1CN(c2ncc3ncnc(Nc4ccc(Oc5ccn6ncnc6c5)c(Cl)c4)c3n2)CC1(F)F [Example 323] | ≥ 5000 | 12.2 | 75.4 | 59.9 | 9720
8 | CC1(O)CN(c2ncc3ncnc(Nc4ccc(Oc5ccn6ncnc6c5)c(Cl)c4)c3n2)C1 [Example 324] | ≥ 5000 | 64.4 | 119 | 124 | ≥ 10000
9 | COC[C@H](O)CN(C)c1ncc2ncnc(Nc3ccc(Oc4ccn5ncnc5c4)c(Cl)c3)c2n1 [Example 325] | ≥ 5000 | 27.5 | 45.3 | 166 | 4880
10 | OC1(CNc2ncc3ncnc(Nc4ccc(Oc5ccn6ncnc6c5)c(Cl)c4)c3n2)COC1 [Example 326] | ≥ 5000 | 14.4 | 32.6 | 32.1 | 2340
11 | C[C@H]1CN(c2ncc3ncnc(Nc4ccc(Oc5ccn6ncnc6c5)c(Cl)c4)c3n2)CCO1 [Example 327] | ≥ 5000 | 20.8 | 32.1 | 105 | 3820
12 | COC[C@@H]1CCN1c1ncc2ncnc(Nc3ccc(Oc4ccn5ncnc5c4)c(Cl)c3)c2n1 [Example 328] | ≥ 5000 | 17.9 | 105 | 306 | ≥ 10000
13 | CN(CC1(O)CCC1)c1ncc2ncnc(Nc3ccc(Oc4ccn5ncnc5c4)c(Cl)c3)c2n1 [Example 329] | ≥ 5000 | 19.8 | 37.7 | 85.2 | 5060
14 | CC1(C)CN(c2ncc3ncnc(Nc4ccc(Oc5ccn6ncnc6c5)c(Cl)c4)c3n2)CCO1 [Example 330] | ≥ 5000 | 34.3 | 72.6 | 197 | 8510
15 | O[C@@H]1C[C@H]2C[C@@H]1CN2c1ncc2ncnc(Nc3ccc(Oc4ccn5ncnc5c4)c(Cl)c3)c2n1 [Example 332] | ≥ 5000 | 48.6 | 50.5 | 186 | ≥ 10000
16 | O[C@@H]1C[C@@H]2C[C@H]1CN2c1ncc2ncnc(Nc3ccc(Oc4ccn5ncnc5c4)c(Cl)c3)c2n1 [Example 333] | ≥ 5000 | 11.9 | 23.2 | 82.1 | 2230
17 | O[C@H]1C[C@@H]2C[C@H]1CN2c1ncc2ncnc(Nc3ccc(Oc4ccn5ncnc5c4)c(Cl)c3)c2n1 [Example 334] | ≥ 5000 | 20.4 | 55.7 | 266 | 1650
18 | O[C@H]1C[C@H]2C[C@@H]1CN2c1ncc2ncnc(Nc3ccc(Oc4ccn5ncnc5c4)c(Cl)c3)c2n1 [Example 335] | ≥ 5000 | 15.7 | 24.1 | 143 | 4110

Row | SMILES | IC50 (EGFR wild type (EGFR WT)) [nM] | IC50 [1] [nM] | IC50 (ErbB2 WT) [nM] | IC50 [2] [nM] | IC50 (EGFR) [nM]
19 | O[C@H]1[C@@H]2C[C@H]1CN(c1ncc3ncnc(Nc4ccc(Oc5ccn6ncnc6c5)c(Cl)c4)c3n1)C2 [Example 336] | ≥ 5000 | 54 | 130 | 2260 | ≥ 10000
20 | CC1(C)CN(c2ncc3ncnc(Nc4ccc(Oc5ccn6ncnc6c5)c(Cl)c4)c3n2)CC[C@@H]1O [Example 337] | ≥ 5000 | 17 | 13.3 | 70.3 | 2490
21 | O[C@H]1CN(c2ncc3ncnc(Nc4ccc(Oc5ccn6ncnc6c5)c(Cl)c4)c3n2)CC[C@@H]1F [Example 338] | ≥ 5000 | 13.2 | 12.8 | 65.2 | 1990
22 | CC1(C)CN(c2ncc3ncnc(Nc4ccc(Oc5ccn6ncnc6c5)c(Cl)c4)c3n2)C[C@H]1O [Example 339] | ≥ 5000 | 47.2 | 71.4 | 587 | 5240
23 | C[C@H]1CN(c2ncc3ncnc(Nc4ccc(Oc5ccn6ncnc6c5)c(Cl)c4)c3n2)C[C@@H]1O [Example 340] | ≥ 5000 | 16.8 | 41.2 | 165 | 4000
24 | O[C@@H]1[C@@H]2CC[C@H]1CN(c1ncc3ncnc(Nc4ccc(Oc5ccn6ncnc6c5)c(Cl)c4)c3n1)C2 [Example 341] | ≥ 5000 | 12.7 | 20.7 | 43.1 | 1740
25 | O[C@H]1[C@@H]2CC[C@H]1CN(c1ncc3ncnc(Nc4ccc(Oc5ccn6ncnc6c5)c(Cl)c4)c3n1)C2 [Example 342] | ≥ 5000 | 10.4 | 25.3 | 108 | 1670
26 | Cc1cc(Nc2ncnc3cnc(N(CC(F)F)CC(F)F)nc23)ccc1Oc1ccc2c(c1)ncn2C [Example 344] | ≥ 5000 | 161 | 675 | 128 | ≥ 10000
27 | Cc1cc(Nc2ncnc3cnc(N4CCC5(CCO5)CC4)nc23)ccc1Oc1ccc2c(c1)ncn2C [Example 345] | ≥ 5000 | 31.3 | 57.8 | 18.5 | ≥ 10000
28 | Cc1cc(Nc2ncnc3cnc(N4CCN5C(=O)COC[C@H]5C4)nc23)ccc1Oc1ccc2c(c1)ncn2C [Example 346] | ≥ 5000 | 39.5 | 60.4 | 20.3 | ≥ 10000
29 | Cc1c(Oc2ccc3c(c2)ncn3C)ccc(Nc2ncnc3cnc(N4CC5CC5(O)C4)nc23)c1F (stereo not drawn) [Example 347] | ≥ 5000 | 79.6 | 110 | 244 | ≥ 10000
30 | Cc1cc(Nc2ncnc3cnc(N(C)[C@H]4CCCOC4)nc23)ccc1Oc1ccn2ncnc2c1 [Example 349] | ≥ 5000 | 18.9 | 24 | 116 | 1290
31 | Clc1cc(Nc2ncnc3cnc(N4C[C@@H]5[C@H](C4)[C@H]4CC[C@@H]5O4)nc23)ccc1Oc1ccn2ncnc2c1 [Example 351] | ≥ 5000 | 30.8 | 58.4 | 150 | ≥ 10000
32 | Cc1cc(Nc2ncnc3cnc(N4CCN[C@H](C)C4)nc23)ccc1Oc1ccn2ncnc2c1 [Example 352] | ≥ 5000 | 37.5 | 131 | 147 | ≥ 10000
33 | Cc1cc(Nc2ncnc3cnc(N(C)C[C@@H]4COCCO4)nc23)ccc1Oc1ccc2c(c1)ncn2C [Example 353] | ≥ 5000 | 48.2 | 47.5 | 18.1 | ≥ 10000
34 | FC(F)O[C@@H]1CCN(c2ncc3ncnc(Nc4ccc(Oc5ccn6ncnc6c5)c(Cl)c4)c3n2)C1 [Example 354] | ≥ 5000 | 27.6 | 29 | 72.2 | ≥ 10000
35 | Cc1cc(Nc2ncnc3cnc(N4CCN[C@H](C(F)(F)F)C4)nc23)ccc1Oc1ccn2ncnc2c1 [Example 355] | ≥ 5000 | 19.3 | 24.5 | 182 | 5040
36 | Clc1cc(Nc2ncnc3cnc(N4CC[C@@]5(CCOC5)C4)nc23)ccc1Oc1ccn2ncnc2c1 [Example 356] | ≥ 5000 | 36.1 | 92.8 | 270 | ≥ 10000
